Reference: patent publication US8906888B2, “Low-calcemic 16,23-diene 25-oxime analogs of 1α,25-dihydroxy vitamin D3” (Cytochroma Inc., priority 2005, dated 2014)

What was measured:
CYP24 = molecular target: T1, CYP24 (Homo sapiens, UniProt Q07973); experiment: CYP24 enzyme assay (V79-CYP24 cells, 3H-1α,25(OH)2D3 substrate); format: cell-based; conditions: substrate 20 nM, 2 hours, read-out: IC50 in the inhibition of CYP24
T1 construct: expressed in transfected cells; host or cells: V79-CYP24 cells (V79 = Chinese hamster lung fibroblasts, own knowledge; kept under hygromycin selection)
T1 sequence (Q07973 36-514): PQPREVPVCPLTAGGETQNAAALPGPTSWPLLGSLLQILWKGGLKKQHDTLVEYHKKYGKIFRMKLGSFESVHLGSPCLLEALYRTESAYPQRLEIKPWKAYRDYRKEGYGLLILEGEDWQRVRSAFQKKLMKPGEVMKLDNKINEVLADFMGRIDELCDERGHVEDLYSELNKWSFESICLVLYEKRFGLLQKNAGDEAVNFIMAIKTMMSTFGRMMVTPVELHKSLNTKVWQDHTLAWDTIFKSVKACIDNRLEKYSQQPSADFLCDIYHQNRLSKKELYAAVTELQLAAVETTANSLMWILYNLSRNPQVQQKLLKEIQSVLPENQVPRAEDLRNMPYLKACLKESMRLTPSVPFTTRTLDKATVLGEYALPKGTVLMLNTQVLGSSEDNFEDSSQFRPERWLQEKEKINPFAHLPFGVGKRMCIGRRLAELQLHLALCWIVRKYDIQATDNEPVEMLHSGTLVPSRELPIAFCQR
Protocol: (i) Material and Reagents:
Substrates (1 mM) reconstituted in isopropanol
1. Preparation of Cell Suspension • On the day of the assay, washed the monolayer of V79-CYP24 cells once with 1×PBS buffer and then trypsinized for 5 min at room temperature (approx. 22° C.). Added 1×PBS. Collected cells into tube, centrifuged cells (500×g, 5 min) and resuspended in DMEM+1% BSA media. Counted cells and adjusted density to 2 million/1 mL.
2. Cell Plating • Added 80 μl of cell suspension to appropriately labeled wells of a 96-well plate. Incubated plate for 45 minutes at 37° C. in a humidified atmosphere containing 5% CO2.
3. Compound Addition • Added 10 μl of inhibitor (10^−6 to 10^−10 M) and then after 35-40 min added 10 μl of substrate [^3H-1β]-1α,25(OH)2D3 (20 nM) for 2 hours at 37° C. in a humidified atmosphere containing 5% CO2. Both inhibitor and substrate were prepared in DMEM with 1% BSA media.
4. Lipid Extraction and Counting • Added 250 μl of methanol to stop the reaction and mixed. Added […] of dichloromethane, covered block and vortexed. Added […] of dichloromethane again, added […] of saturated KCl and vortexed. Centrifuged at 3000 rpm for 30 min. Triplicate 100 μl aliquots of aqueous fraction were mixed with 200 μl of scintillation fluid and the radioactivity was measured using a scintillation counter. All values were normalized for background. (iii) Results: • 1. […] (iv) Reference: 1. PCT Patent Application Serial No. PCT/CA03/00620

MCF-7 cells = experiment: [3H]-Thymidine proliferation assay with MCF-7 cells; format: cell-based; conditions: breast cancer cells, 3 days, 3H-thymidine incorporation
Protocol: 1. Preparation of Cell Suspension. • When MCF-7 cells were 70-80% confluent, aspirated growth media. Washed the cells with 1×PBS. Trypsinized with trypsin-EDTA from the plate, collected cells from the tissue culture flask, centrifuged (500×g, 5 min) and resuspended in growth media.
2. Cell Plating. • Counted the cells and adjusted the cell density to 25,000/ml. Added 200 μl per well in a 96 well plate. Incubated plate for 24 h at 37° C. in a humidified atmosphere plus 5% CO2. Aspirated used media and replaced with 175 μl per well with proliferation media.
3. Substrate Addition. • Added 25 μl of compound (final concentration 10^−7 M, 5×10^−8 M, 10^−8 M, 5×10^−9 M, 10^−10 M or 0 M) into each designated well. Incubated plates for 3 days at 37° C. in a humidified atmosphere plus 5% CO2.
4. ^3H-Thymidine Incorporation. • Added ^3H-thymidine at 0.02 μCi per well and incubated at 37° C. in a humidified atmosphere plus 5% CO2 for 6 h.
5. Plate Harvesting. • Aspirated all media and washed cells with 1×PBS. Trypsinized cells for 30 min at 37° C. in a humidified atmosphere plus 5% CO2. Harvested cells onto a 96 well filter plate (Millipore) using a Tomtec Cell Harvestor, according to manufacturers instructions.
6. Scintillation Counting. • Added 25 μl of scintillation fluid per well. Counted the plate using a scintillation counter. Results: Compound (20R)-I(e) inhibited MCF-7 cell proliferation.

[1] = Pharmacokinetics after i.v. administration in rats; format: in vivo; conditions: rat, iv, male Wistar rats, 16 mg/kg B.W.
Protocol: A formulation of compound (20R)-I(e) dissolved in saline (0.9% NaCl): propylene glycol:ethanol (5:3:2; v/v/v) was prepared at a concentration of 20 mg/ml.
Nine male Wistar rats (150-200 g) were fasted 8 hours prior to the initiation of the study. At the initiation of the study, the nine rats received 0.8 ml/kg body weight (B.W.) of the dosing formulation by intravenous (i.v.) injection to deliver 16 mg of compound (20R)-I(e)/kg B.W. Blood was collected from three animals at 0 (day-1), 5, 15, 30, 60, 120, 180 and 240 minutes post dosing. At each time point, 1 ml of blood was collected from the orbital sinus in unpreserved Microtainer tubes. Separated serum samples were kept frozen at −80° C. until analysis. The concentration of compound (20R)-I(e) in the serum samples was quantified using a High Performance Liquid Chromatographic method with Mass Spectroscopy detection (LC MS/MS). An internal standard was added to an aliquot of […] of serum sample and extracted using solid phase extraction (SPE). Samples were passed through C18-SPE cartridges then compound (20R)-I(e) and the internal standard were eluted with 1 ml of methanol. Extracts were evaporated to dryness under nitrogen. The residues were reconstituted in […] of methanol:water (8:2; v/v) and analyzed by LC MS/MS. (iii) Results: Summary of the calculated pharmacokinetic parameters for the i.v. administration of a 16 mg/kg B.W. dose of compound (20R)-I(e) is in the Table below. The Area-Under-Curve (AUC) was calculated from T=0 to 240 min. The maximum concentration (Cmax) was determined from the mean serum concentration versus time profile. The elimination half life (T1/2) was calculated from the elimination phase of the concentration versus time profile assuming first order kinetic elimination.

IC50 (CYP24): 20.7 nM | Cmax ([1]; mean serum concentration): 38.9 ng/mL | AUC ([1]; serum, T=0 to 240 min): 39.6 ng·h/mL | half-life ([1]; serum, first order elimination assumed, read-out: T1/2 (elimination half life) (converted)): 15 min
Compound: C=C1/C(=C\C=C2/CCC[C@]3(C)C([C@H](C)C/C=C/C(=NOC)C(C)(C)C)=CC[C@@H]23)C[C@@H](O)C[C@@H]1O [(20R)-I(e)]
Inhibition of MCF-7 cell proliferation (MCF-7 cells): inhibited
